From patent US9938316B2, “Selective inhibitors of α2 isoform of Na,K-ATPase and use thereof for reduction of intra-ocular pressure and as cardiotonic agents” (priority 2013, dated 2018)

Key:
[1] = system: Na,K-ATPase α2β1 isoform complex; assay: biochemical; format: biochemical, human; settings: for Selectivity α1β1/α2/β1: ratio of Ki, Table 6; for Selectivity ratio Ki α1/α2 ± S.E.: Kiα1β1/Kiα2β1
Experimental: (§1) Methods for transformation, culture of P. pastoris clones, protein expression of Na,K-ATPase human isoforms (α1β1, α2β1, α3β1), membrane preparation, solubilization of membranes in DDM, and purification on BD-Talon beads have been described in detail (6-9, 11, 25). In initial experiments the three purified isoform complexes (0.3-0.5 mg/ml) were eluted from the BD-Talon beads in a solution containing Imidazole 170 mM, NaCl 100 mM; Tricine.HCl 20 mM pH 7.4; C12E8, 0.1 mg/ml; SOPS 0.07 mg/ml cholesterol 0.01 mg/ml, glycerol 25%. In later experiments the isoforms complexes were reconstituted with purified FXYD1 on the BD-Talon beads together as described in detail in (10, 11) prior to elution of α1β1FXYD1, α2β1FXYD1 and α3β1FXYD1 complexes. The proteins were stored at −80° C. Protein concentration was determined with BCA (B9643 Sigma).
(§2) Inhibition of Na,K-ATPase activity of the detergent-soluble α1β1, α2β1, and α3β1 complexes by CG's was determined as described (6) using either the αβ or αβFXYD1 complexes. […] The K0.5K was estimated by varying K concentration in a medium containing a fixed total K+choline chloride of 60 mM, and constant NaCl of 140 mM. Curves were fitted to the Hill function v=Vmax*[S]^n/([S]^n+K^n), where S is the K concentration, n is the Hill coefficient and K^n is K0.5K. For comparison of different curves the ratio v/Vmax for each curve was calculated and replotted. In experiments to assess inhibition of Na,K-ATPase activity by cardiac glycosides of the present invention, the percent inhibition VCG/V0 was calculated and Ki values were obtained by fitting the data to the function VCG/V0=Ki/([CG]+Ki)+ c. Inhibition was estimated in 3-8 separate experiments and average Ki values ±SEM were calculated. Significance of differences between Kiα1 and Kiα2 was calculated by the unpaired Student's t-test (p values). […] P values <0.05 were considered significant.

[2] = molecular target: T1, Na,K-ATPase α1β1 isoform complex (Homo sapiens, UniProt P05023); assay: biochemical; set-up: made in house; host or cells: Pichia pastoris SMD1165; settings: Ki, nM ± SEM α1β1, Table 6
Experimental: as §1, §2

[3] = molecular target: T2, Na,K-ATPase α2β1 isoform complex (Homo sapiens, UniProt P50993); assay: biochemical; format: biochemical; set-up: made in house; host or cells: Pichia pastoris SMD1165; settings: Ki, nM ± SEM α2β1, Table 6
Experimental: as §1, §2

[4] = molecular target: T3, Na,K-ATPase α2β2 isoform complex (Homo sapiens, UniProt P50993); assay: biochemical
T3 construct: made in house; host or cells: Pichia pastoris SMD1165
From the text: (§3) Human β1, β2 and β3 were cloned into the pHIL-D2 expression vector containing the human α1 or α2. pHIL-D2 expression vectors containing porcine (p) α1, human (h) α1 or human α2 with Hisx10 tagged porcine β1 were previously generated (7, 9). Human β1 (Accession: P05026), human β2 (Accession: P14415) and human β3 (Accession: […]) cDNAs in pSD5 vector were a gift from K. Geering Univ. Lausanne Switzerland. The open reading frames and flanking regions of hβ1, hβ2 and hβ3 (in pSD5) were amplified separately by polymerase chain reaction (PCR) using synthetic primers containing BglII and SalI cleavage sites. Each one of the amplified fragments were digested with BglII and SalI and ligated to BglII and SalI treated plasmid pHIL-D2-(pα1/His10pβ1) to generate pHIL-D2 (pα1/His10hβ1or2or3). hβ1, hβ2 and hβ3 containing fragments were excised from pHIL-D2-(pα1/His10hβ1or2or3) and subcloned into pHIL-D2-(hα1/His10pβ1) or pHIL-D2-(hα2/His10pβ1) to produce pHIL-D2-(hα1/His10hβ1or2or3) and pHIL-D2-(hα2/His10hβ1or2or3). The newly created plasmids were analyzed for correct integration and correct sequence of the insert by restriction enzymatic digestions and sequencing. DNA of each construct was prepared in large quantities in E. coli XL-1 Blue for Pichia pastoris transformation.
as §2

[5] = system: Na,K-ATPase α2β2 isoform complex; assay: biochemical; set-up: species or system human; settings: ratio of Ki, Table 6
From the text: as §3, §2

[6] = molecular target: T4, Na,K-ATPase α2β3 isoform complex (Homo sapiens, UniProt P50993); assay: biochemical
T4 construct: made in house; host or cells: Pichia pastoris SMD1165
From the text: as §3, §2

[7] = system: Na,K-ATPase α2β3 isoform complex; assay: biochemical; set-up: species or system human; settings: ratio of Ki, Table 6
From the text: as §3, §2

[8] = system: intra-ocular pressure (IOP) of rabbits; assay: 4-aminopyridine (4AP)-induced ocular hypertension in rabbits; format: in vivo, New Zealand white rabbits; settings: applied topically prior to 4AP
Experimental: Intra-ocular pressure in rabbits was measured using of a “Reichert Model 30™ Pneumatonometer” after anesthetizing the cornea with local anesthetic.
Since the IOP reflects a balance of the inflow and outflow of aqueous humour, reduction of the increased 4AP-induced inflow of aqueous humour by cardiac glycosides should prevent the increase in IOP. Thus, the standard experimental design to test effects of cardiac glycosides involved topical application of the compounds (1 drop in each eye) 30 minutes prior to application of 4AP and measurement of IOP every 30 minutes over five hours. […] Each experiment was done three times, but the figures depict a representative experiment using a different rabbit for each concentration of the cardiac glycoside.
DGlyN or DMe (0.1 or 1 mM) were applied one hour after the first application of 4AP, which was added every two hours.
(§4) New Zealand white rabbits (3-3.5 kg) about 1 year old, of either sex, were housed individually in separate cages in animal room conditions on a reversed, 12-hour dark/light cycle. For the experiments the animals were transferred to rabbit restrainers in a quiet and calm atmosphere (FIG. 1). […] Animal care and treatment were subject to the approval of the institutional committee for animal experiments, Weizmann Institute IACUC permission (no 04270911-2).
(§5) IOP (mm Hg) of rabbits was measured using a calibrated Pneumatonometer (Model 30, Reichert technologies, FIG. 1). A local anesthetic Oxybuprocaine HCl (0.4%, 25 μl) was applied to each cornea about a minute before IOP measurements. Two baseline IOP readings were taken before topical administration of the CG (or PBS as control) and after half an hour (Zero time). […] At zero time one drop of 4AP (40 mg/ml, 30 μl) or IB-MECA (1 μM, 30 μl) was administered to both eyes of each rabbit IOP measurements were made at different times as indicated in each experiment. In the experiments for which the IOP was elevated for several hours, 4AP was added every […] or IB-MECA every 2 hours. […] In all cases the figures depict the average effect on IOP (i.e for four or six eyes) compared to control ±SEM. […] Significance of differences from the control was calculated by the unpaired Students t-test (p values), p values <0.05 were considered significant. Corneal thickness (μm) was measured using an ultrasonic pachymeter (Sonogage pachometer, Cleveland, USA), before and during the experiment with CG and 4AP treatments. The values represent averages of three independent measurements for each eye.

[9] = molecular target: T2, Na,K-ATPase α2β1 isoform complex; assay: biochemical; format: biochemical; settings: Ki ± S.E. α2, Table 2; α2β1
Experimental: as §1, §2

[10] = molecular target: T1, Na,K-ATPase α1β1 isoform complex; assay: biochemical; settings: Ki ± S.E. α1, Table 2; α1β1
Experimental: as §1, §2

[11] = system: intra-ocular pressure (IOP) of rabbits; assay: IB-MECA-induced ocular hypertension in rabbits; format: in vivo, New Zealand white rabbits; settings: single drop, 1 μM
Experimental: IB-MECA induces acute ocular hypertension by a different and well-defined mechanism. Namely, IB-MECA is a selective agonist of the A3-adenosine receptor, and rises aqueous humour inflow and IOP by activating Cl channels of the NPE cells (18, 19). […] FIG. 8A depicts the effects of DMe (0.1-1 mM) applied prior to the IB-MECA, and a similar result was obtained for DGlyN (not shown). FIG. 8B depicts effects of digoxigenin, DGlyN and DMe (1 mM) applied after the IB-MECA.
as §4, §5

Row | Structure (SMILES) | Selectivity α1β1/α2/β1 [1] | Ki [2] [nM] | Ki [3] [nM] | Ki [4] [nM] | Selectivity α1β1/α2/β2 [5] | Ki [6] [nM] | Selectivity α1β1/α2β3 [7] | Concentration required to fully prevent the rise in IOP [8] [µM] | Ki [9] [nM] | Selectivity ratio Ki α1/α2 ± S.E. [1] | Ki [10] [nM] | Effect on IOP [11]
1 | CCCN1CCC(OC2C(O)CC(OC3C(O)CC(OC4CCC5(C)C(CCC6C5CC(O)C5(C)C(C7=CC(=O)OC7)CCC65O)C4)OC3C)OC2C)OC(C)C1 (stereo not drawn) [DP] | 4.8 | 87.7 ± 7.9 | 18.3 ± 1.68 | 10.5 ± 1.8 | 8.3 | 9.8 ± 1.1 | 8.8 | – | – | – | – | –
2 | CC1CN(C(C)(C)C)CCC(OC2C(O)CC(OC3C(O)CC(OC4CCC5(C)C(CCC6C5CC(O)C5(C)C(C7=CC(=O)OC7)CCC65O)C4)OC3C)OC2C)O1 (stereo not drawn) [DtB] | 6.2 | 135 ± 12.1 | 21.6 ± 5.6 | 18.4 ± 1.1 | 7.3 | 16.3 ± 0.28 | 8.2 | – | – | – | – | –
3 | CC(C)CN1CCC(OC2C(O)CC(OC3C(O)CC(OC4CCC5(C)C(CCC6C5CC(O)C5(C)C(C7=CC(=O)OC7)CCC65O)C4)OC3C)OC2C)OC(C)C1 (stereo not drawn) [DIB] | – | 92 ± 8.9 | 20.6 ± 1.4 | 10 ± 0.8 | – | 5.8 | – | > 30 | – | – | – | –
4 | CCN1CCC(OC2C(O)CC(OC3C(O)CC(OC4CCC5(C)C(CCC6C5CC(O)C5(C)C(C7=CC(=O)OC7)CCC65O)C4)OC3C)OC2C)OC(C)C1 (stereo not drawn) [DEt] | 5.9 | 138 ± 12.6 | 23.2 ± 0.9 | 16.4 ± 1.6 | 8.3 | 14.4 ± 1.27 | 9.5 | – | 18.5 ± 4.9 | 2.88 ± 0.78 | 53 ± 3.4 | –
5 | CC1CN(C(C)C)CCC(OC2C(O)CC(OC3C(O)CC(OC4CCC5(C)C(CCC6C5CC(O)C5(C)C(C7=CC(=O)OC7)CCC65O)C4)OC3C)OC2C)O1 (stereo not drawn) [DIP] | 5.1 | 149 ± 20.7 | 28.9 ± 1.7 | 16.7 ± 1.9 | 8.9 | 10.3 ± 1.8 | 14.4 | – | – | – | – | –
6 | CC1CN(C[Si](C)(C)C)CCC(OC2C(O)CC(OC3C(O)CC(OC4CCC5(C)C(CCC6C5CC(O)C5(C)C(C7=CC(=O)OC7)CCC65O)C4)OC3C)OC2C)O1 (stereo not drawn) [DTMS] | 3.4 | 108 | 31.5 | 15 | 7.2 | 7.8 | 13.8 | – | – | – | – | –
7 | CC1CN(CC(F)(F)F)CCC(OC2C(O)CC(OC3C(O)CC(OC4CCC5(C)C(CCC6C5CC(O)C5(C)C(C7=CC(=O)OC7)CCC65O)C4)OC3C)OC2C)O1 (stereo not drawn) [DMeCF3] | 4.1 | 119 ± 15 | 28.6 ± 0.9 | 18.1 ± 1.9 | 6.5 | 12.4 ± 1.5 | 9.6 | – | 44 ± 7 | 4.50 ± 1.0 | 199 ± 33 | –
8 | CNC(=O)[C@H]1O[C@@H](n2cnc3c(NCc4cccc(I)c4)ncnc32)[C@H](O)[C@@H]1O [IB-MECA, reference compound] | – | – | – | – | – | – | – | – | – | – | – | significant but transient increase in IOP
